{"source": "patent US12661364B2", "about": "“Remedy for hair growth enhancing” (GURUS BIOPHARM INC., priority 2019, dated 2026)", "key": {"[1]": {"assay": "Stability of the cosmetic composition during accelerated storage at room temperature (HPLC content of the combination's components)", "format": "physicochemical", "details": "for Stability / content in the cosmetic composition during accelerated storage (in words): room temperature, 20 degrees above the recommended +4 to +8° C.; for Prostaglandin F2 content, % (as % to the initial one): +25-27° C., measurement error 5%", "protocol": "The cosmetic composition for stimulation of hair growth (example of composition 1 according to the invention, see above) was held at +25-27° C. for 2 months. Samples were taken every week and analyzed for the content of the components of the combination by HPLC. To prepare a sample for analysis, 1 g of gel was taken from the cosmetic composition into a round-bottom glass centrifuge tube and 2 g of distilled ethyl acetate were added. The mixture was shaken on a Multi-Vortex V32 until the liquids were completely mixed for 3 min. The resulting suspension was centrifuged for 5 min at 6000 rpm for complete separation of the layers. The upper layer (ethyl acetate layer) was carefully removed with a glass pipette and transferred to a conical-bottom flask (V25 mL). Another 2 g of distilled ethyl acetate were added to the solution remaining in the test tube, and the extraction procedure was repeated once again. The upper layer (ethyl acetate layer) was carefully removed with a glass pipette and added to the previously collected solution. The organic layer was evaporated on a rotary evaporator and dried in an oil pump vacuum. The residue was dissolved in ethanol to obtain a solution with an ethanol concentration of 26 mg/100 μL. The extract was analyzed by microcolumn reversed-phase HPLC in an acetonitrile-water gradient system (linear gradient, 5→100% acetonitrile). The components of the combination of the invention were identified by comparison with reference standards. The quantity of each component was estimated by the signal area in the chromatogram."}, "[2]": {"system": "scalp hair growth", "details": "0.1% latanoprost applied to the scalp, after 24 weeks; cited from earlier work"}}, "data": [{"smiles": "CCCCC[C@H](O)/C=C/[C@H]1[C@H](O)CC(=O)[C@@H]1C/C=C\\CCCC(=O)OC(CO[N+](=O)[O-])CO[N+](=O)[O-]", "note": "[(Z)-1,3-bis(nitroxy)propanyl-2-7-((1R,2R,3R)-3-hydroxy-2-((S,E)-3-hydroxyoctene-1-yl-1)-5-oxocyclopentenyl)-5-heptenoate]", "values": [{"measurement": "Stability / content in the cosmetic composition during accelerated storage (in words)", "setting": "[1]", "result": "decreases over time"}]}, {"smiles": "CCCCC[C@H](O)/C=C/[C@H]1[C@H](O)CC(=O)[C@@H]1CCCCCCC(=O)OC(CO[N+](=O)[O-])CO[N+](=O)[O-]", "note": "[E1, (Z)-1,3-bis(nitroxy)propan-2-yl-7-((1R,2R,3R)-3-hydroxy-2-((S,E)-3-hydroxyoct-1-en-1-yl)-5-xocyclopentyl)heptanoate]", "values": [{"measurement": "Stability / content in the cosmetic composition during accelerated storage (in words)", "setting": "[1]", "result": "decreases over time"}]}, {"smiles": "CC(C)OC(=O)CCC/C=C\\C[C@@H]1[C@@H](CC[C@@H](O)CCc2ccccc2)[C@H](O)C[C@@H]1O", "note": "[latanoprost]", "values": [{"measurement": "Hair density (terminal and vellus hair)", "setting": "[2]", "result": "significant increase in hair density"}]}, {"smiles": "CCCCC[C@H](O)/C=C/[C@@H]1[C@@H](C/C=C\\CCCC(=O)N[C@H](CO)C(=O)OC(C)C)[C@@H](O)C[C@H]1O", "note": "[modified prostaglandin F2]", "values": [{"measurement": "Prostaglandin F2 content, % (as % to the initial one)", "setting": "[1]; hold time 0 weeks, cosmetic composition for stimulation of hair growth", "result": 100, "unit": "%"}, {"measurement": "Prostaglandin F2 content, % (as % to the initial one)", "setting": "[1]; hold time 1 week", "result": 100, "unit": "%"}, {"measurement": "Prostaglandin F2 content, % (as % to the initial one)", "setting": "[1]; hold time 2 weeks", "result": 100, "unit": "%"}, {"measurement": "Prostaglandin F2 content, % (as % to the initial one)", "setting": "[1]; hold time 3 weeks", "result": 99, "unit": "%"}, {"measurement": "Prostaglandin F2 content, % (as % to the initial one)", "setting": "[1]; hold time 4 weeks", "result": 99, "unit": "%"}, {"measurement": "Prostaglandin F2 content, % (as % to the initial one)", "setting": "[1]; hold time 5 weeks", "result": 98, "unit": "%"}, {"measurement": "Prostaglandin F2 content, % (as % to the initial one)", "setting": "[1]; hold time 6 weeks", "result": 98, "unit": "%"}, {"measurement": "Stability / content in the cosmetic composition during accelerated storage (in words)", "setting": "[1]", "result": "decreases very slowly"}]}]}
